# Source: BindingDB's records for doi:10.3109/14756366.2011.645241 (Cairo University, 2013)
# Legend:
# Cannabinoid receptor 1 = Cannabinoid receptor 1 (Homo sapiens, UniProt P21554); assay: Cannabinoid Receptor Binding Assay
# Protocol: (§1) Membranes from HEK-293 cells transfected with the human recombinant CB1 receptor(Bmax=2.5pmol/mg protein) and human recombinant CB2 receptor (B max=4.7 pmol/mgprotein) were incubated with [3H]-CP-55,940 (0.14 nM / Kd = 0.18 nM and 0.084nM / Kd =0.31 nM respectively for CB1 and CB2 receptor) as the high affinity ligand and displaced with 10 μM WIN 55212-2 as the heterologous competitor for non specific binding (Ki values 9.2 nM and 2.1 nM respectively for CB1 and CB2 receptor). All compounds were tested following the procedure described by the manufacturer (Perkin Elmer, Italy). Displacement curves were generated by incubating drugs with [3H]-CP-55,940 for 90 minutes at 30 C. Ki values were calculated by applying the Cheng-Prusoff equation to the IC50 values (obtained by GraghPad) for the displacement of the bound radioligand by increasing concentrations of the testcompound. Data are means±SEM of at least n=3 experiments.
# Cannabinoid receptor 2 = Cannabinoid receptor 2 (Homo sapiens, UniProt P34972); assay: Cannabinoid Receptor Binding Assay
# Cannabinoid receptor 2, sequence (P34972 whole entry): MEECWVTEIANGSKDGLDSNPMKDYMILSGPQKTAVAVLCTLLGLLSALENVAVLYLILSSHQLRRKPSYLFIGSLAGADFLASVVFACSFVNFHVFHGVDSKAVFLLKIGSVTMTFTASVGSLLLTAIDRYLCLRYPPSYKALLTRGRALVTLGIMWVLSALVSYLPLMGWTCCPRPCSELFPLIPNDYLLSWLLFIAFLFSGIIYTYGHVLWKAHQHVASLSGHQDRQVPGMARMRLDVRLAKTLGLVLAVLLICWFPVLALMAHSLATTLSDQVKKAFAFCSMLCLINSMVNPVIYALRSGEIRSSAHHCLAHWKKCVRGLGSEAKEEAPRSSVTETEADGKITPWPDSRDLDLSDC
# Protocol: as §1
# Cannabinoid receptor 1, sequence (P21554 whole entry): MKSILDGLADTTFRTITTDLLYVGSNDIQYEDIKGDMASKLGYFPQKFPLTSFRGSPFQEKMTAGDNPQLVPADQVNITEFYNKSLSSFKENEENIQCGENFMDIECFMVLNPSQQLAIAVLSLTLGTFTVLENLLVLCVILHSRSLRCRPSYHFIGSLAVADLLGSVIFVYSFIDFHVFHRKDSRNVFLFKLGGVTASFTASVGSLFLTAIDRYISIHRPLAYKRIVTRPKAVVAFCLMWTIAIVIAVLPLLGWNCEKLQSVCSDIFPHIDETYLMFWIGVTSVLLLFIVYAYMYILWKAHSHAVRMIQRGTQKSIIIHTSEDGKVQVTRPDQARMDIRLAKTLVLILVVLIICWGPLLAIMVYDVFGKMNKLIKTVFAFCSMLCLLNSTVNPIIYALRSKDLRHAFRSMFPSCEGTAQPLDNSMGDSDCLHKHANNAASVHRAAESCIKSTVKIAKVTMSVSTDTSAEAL
IC50 (Cannabinoid receptor 1),Ki (Cannabinoid receptor 1),IC50 (Cannabinoid receptor 2),Ki (Cannabinoid receptor 2),Structure (SMILES)
> 10 µM,> 10 µM,> 10 µM,> 10 µM,Cc1ccc(/C=C/C(=O)CCC(=O)Nc2ccc(O)cc2)cc1 [(E)-N-(4-Hydroxyphenyl)-4-oxo-6-p-tolylhex-5-enamide (3f)]
> 10 µM,> 10 µM,> 10 µM,> 10 µM,CCOC(=O)CNC(=O)CCC(=O)/C=C/c1ccc(OCc2ccccc2)cc1 [(E)-Ethyl 2-(6-(4-(benzyloxy)phenyl)-4-oxohex-5-enamido)acetate (3k)]
> 10 µM,> 10 µM,> 10 µM,> 10 µM,CC(=O)Nc1ccc(OC(=O)CCC(=O)Nc2cccc3ccccc23)cc1 [4-Acetamidophenyl 4-(naphthalen-1-ylamino)-4-oxobutanoate (5c)]
> 10 µM,> 10 µM,> 10 µM,> 10 µM,CCC(C)(O)NC(=O)CCC(=O)/C=C/c1ccccc1 (stereo not given) [(E)-N-(2-Hydroxybutan-2-yl)-4-oxo-6-phenylhex-5-enamide (3a)]
> 10 µM,> 10 µM,> 10 µM,> 10 µM,CCC(C)(O)NC(=O)CCC(=O)/C=C/c1ccc(-c2ccccc2)cc1 (stereo not given) [(E)-6-(Biphenyl-4-yl)-N-(2-hydroxybutan-2-yl)-4-oxohex-5-enamide (3m)]
> 10 µM,> 10 µM,> 10 µM,> 10 µM,CCC(C)(O)NC(=O)CCC(=O)/C=C/c1ccc(C)cc1 (stereo not given) [(E)-N-(2-Hydroxybutan-2-yl)-4-oxo-6-p-tolylhex-5-enamide (3d)]
> 10 µM,> 10 µM,> 10 µM,> 10 µM,"O=C(/C=C/c1ccccc1)CCC(=O)NC(CO)(CO)CO [(E)-N-(1,3-Dihydroxy-2-(hydroxymethyl)propan-2-yl)-4-oxo-6-phenylhex-5-enamide (3b)]"
> 10 µM,> 10 µM,> 10 µM,> 10 µM,CC(=O)Nc1ccc(OC(=O)CCC(=O)/C=C/c2ccccc2)cc1 [(E)-4-Acetamidophenyl 4-oxo-6-phenylhex-5-enoate (3l)]
> 10 µM,> 10 µM,> 10 µM,> 10 µM,"Cc1ccc(/C=C/C(=O)CCC(=O)NC(CO)(CO)CO)cc1 [(E)-N-(1,3-Dihydroxy-2-(hydroxymethylpropan-2-yl)-4-oxo-6-p-tolylhex-5-enamide (3e)]"
> 10 µM,> 10 µM,> 10 µM,> 10 µM,"CCOC(=O)CNC(=O)CCC(=O)/C=C/c1ccc(OC)c(OC)c1 [(E)-Ethyl 2-(6-(3,4-dimethoxyphenyl)-4-oxohex-5-enamido)acetate (3h)]"
> 10 µM,> 10 µM,> 10 µM,> 10 µM,CCC(C)(O)NC(=O)CCC(=O)/C=C/c1ccc(OCc2ccccc2)cc1 (stereo not given) [(E)-6-(4-(Benzyloxy)phenyl)-N-(2-hydroxybutan-2-yl)-4-oxohex-5-enamide (3j)]
> 10 µM,> 10 µM,> 10 µM,> 10 µM,"CCC(C)(O)NC(=O)CCC(=O)/C=C/c1ccc(OC)c(OC)c1 (stereo not given) [(E)-6-(3,4-Dimethoxyphenyl)-N-(2-hydroxybutan-2-yl)-4-oxohex-5-enamide (3i)]"
> 10 µM,> 10 µM,> 10 µM,> 10 µM,CCC(C)(O)NC(=O)CCC(=O)Nc1cccc2ccccc12 (stereo not given) [N-(2-Hydroxybutan-2-yl)-2-(4-naphthalen-1-ylamino)-4-oxobutanamide (5a)]
> 10 µM,> 10 µM,> 10 µM,> 10 µM,CCOC(=O)CNC(=O)CCC(=O)Nc1cccc2ccccc12 [Ethyl 2-(4-(naphthalen-1-ylamino)-4-oxobutanamido)acetate (5b)]
> 10 µM,> 10 µM,> 10 µM,> 10 µM,CCC(C)(O)NC(=O)CCC(=O)/C=C/c1ccc(N(C)C)cc1 (stereo not given) [(E)-6-[4-(Dimethylamino)phenyl]-N-(2-hydroxybutan-2yl)-4-oxohex-5-enamide (3g)]
